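Test compounds were applied to cells in 96-well plates for 48 hours at 5 doses. GI50: concentration for 50% inhibition of growth.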 The source made the active and inactive calls. No stated cut-off is given here; in the data, active = GI50 up to about 1.1 µM and inactive = higher.
Tests used:
Assay in all cases: inhibition of tumour cell growth, NCI panel, 48 h
EKVX = system: EKVX
SNB-75 = system: SNB-75
HT-29 = system: HT-29
NCI-H23 = system: NCI-H23
SF-268 = system: SF-268
U-251 = system: U-251
HCT-15 = system: HCT-15
TK-10 = system: TK-10
MOLT-4 = system: MOLT-4
RXF 393 = system: RXF 393
SW-620 = system: SW-620
LOX IMVI = system: LOX IMVI
SF-295 = system: SF-295
HOP-92 = system: HOP-92
NCI-H522 = system: NCI-H522
SF-539 = system: SF-539
HCT-116 = system: HCT-116
Malme-3M = system: Malme-3M
SN12C = system: SN12C
HOP-62 = system: HOP-62

Structure (SMILES)	GI50 (EKVX)	GI50 (SNB-75)	GI50 (HT-29)	GI50 (NCI-H23)	GI50 (SF-268)	GI50 (U-251)	GI50 (HCT-15) [µM]	GI50 (TK-10)	GI50 (MOLT-4)	GI50 (RXF 393)	GI50 (SW-620)	GI50 (LOX IMVI)	GI50 (SF-295)	GI50 (HOP-92)	GI50 (NCI-H522)	GI50 (SF-539)	GI50 (HCT-116)	GI50 (Malme-3M)	GI50 (SN12C)	GI50 (HOP-62)
CC(=O)OC1CCC2(C)C(=CCC3C2CCC2(C)C3CC3OC4(CCC(C)CN4)C(C)C32)C1 (stereo not given)	> 100 µM (inactive)	> 100 µM (inactive)	> 100 µM (inactive)	> 100 µM (inactive)	> 100 µM (inactive)	> 100 µM (inactive)	> 100	> 100 µM (inactive)	> 100 µM (inactive)	> 100 µM (inactive)	> 100 µM (inactive)	> 100 µM (inactive)	> 100 µM (inactive)	> 100 µM (inactive)	> 100 µM (inactive)	> 100 µM (inactive)	> 100 µM (inactive)	> 100 µM (inactive)	> 100 µM (inactive)	> 100 µM (inactive)
CC(C)(C)c1cc(C2COC(=O)COCCOCC(=O)OCCOCCO2)cc(C(C)(C)C)c1O (stereo not given)	> 95.1 µM (inactive)	20.9 µM (inactive)	37.2 µM (inactive)	42.7 µM (inactive)	34 µM (inactive)	36.7 µM (inactive)	50.2	16.5 µM (inactive)	> 100 µM (inactive)	23.1 µM (inactive)	53.6 µM (inactive)	18.7 µM (inactive)	24 µM (inactive)	24.7 µM (inactive)	> 47 µM (inactive)	> 82.8 µM (inactive)	> 68.2 µM (inactive)	> 100 µM (inactive)	21.8 µM (inactive)	36.2 µM (inactive)
c1ccc(COc2ccc(C[P+](c3ccccc3)(c3ccccc3)c3ccccc3)cc2)cc1	0.233 µM (active)	0.148 µM (active)	0.19 µM (active)	0.2 µM (active)	0.261 µM (active)	0.102 µM (active)	2.82	0.251 µM (active)	0.285 µM (active)	0.0395 µM (active)	0.272 µM (active)	0.251 µM (active)	0.318 µM (active)	0.153 µM (active)	0.195 µM (active)	0.284 µM (active)	0.104 µM (active)	0.361 µM (active)	0.305 µM (active)	0.427 µM (active)
CC(=O)OC/C=C/Cn1nc(Br)c(=O)[nH]c1=O	> 100 µM (inactive)	> 100 µM (inactive)	> 100 µM (inactive)	> 100 µM (inactive)	> 100 µM (inactive)	> 100 µM (inactive)	> 100	> 100 µM (inactive)	> 100 µM (inactive)	> 100 µM (inactive)	> 100 µM (inactive)	> 100 µM (inactive)	> 100 µM (inactive)	> 100 µM (inactive)	> 100 µM (inactive)	> 100 µM (inactive)	> 100 µM (inactive)	> 100 µM (inactive)	> 100 µM (inactive)	> 100 µM (inactive)
CCC(/C=C/c1ccccc1)=N\Nc1ccc(Cl)c(Cl)c1	30.3 µM (inactive)	41.3 µM (inactive)	35.8 µM (inactive)	30.9 µM (inactive)	36.3 µM (inactive)	3.22 µM (inactive)	29.7	56.6 µM (inactive)	31 µM (inactive)	26.7 µM (inactive)	33 µM (inactive)	22.8 µM (inactive)	34.7 µM (inactive)	13.6 µM (inactive)	18.5 µM (inactive)	25.8 µM (inactive)	23.7 µM (inactive)	32.1 µM (inactive)	24.4 µM (inactive)	41.9 µM (inactive)
C/C(=C\C(=O)Nc1ccc2[nH]nnc2c1)Nc1ccc2[nH]nnc2c1	> 100 µM (inactive)	> 100 µM (inactive)	> 100 µM (inactive)	> 100 µM (inactive)	> 100 µM (inactive)	> 100 µM (inactive)	> 100	> 100 µM (inactive)	> 100 µM (inactive)	> 100 µM (inactive)	> 100 µM (inactive)	> 100 µM (inactive)	> 100 µM (inactive)	> 100 µM (inactive)	> 100 µM (inactive)	> 100 µM (inactive)	> 100 µM (inactive)	> 100 µM (inactive)	> 100 µM (inactive)	> 100 µM (inactive)
O=[N+]([O-])c1ccc(-n2nnc(C3=NCCCN3)c2-c2ccc(Cl)cc2)cc1	> 100 µM (inactive)	> 100 µM (inactive)	58.5 µM (inactive)	> 100 µM (inactive)	> 100 µM (inactive)	> 100 µM (inactive)	> 100	> 100 µM (inactive)	79.3 µM (inactive)	73.1 µM (inactive)	> 100 µM (inactive)	> 100 µM (inactive)	> 100 µM (inactive)	> 100 µM (inactive)	> 100 µM (inactive)	> 100 µM (inactive)	89.1 µM (inactive)	> 100 µM (inactive)	> 100 µM (inactive)	> 100 µM (inactive)
N#Cc1c(Cl)c2cccnc2n2c1nc1ccccc12	4.22 µM (inactive)	4.38 µM (inactive)	1.94 µM (inactive)	2.07 µM (inactive)	2.66 µM (inactive)	4.28 µM (inactive)	2.04	1.67 µM (inactive)	2.04 µM (inactive)	1.42 µM (inactive)	1.87 µM (inactive)	1.66 µM (inactive)	19 µM (inactive)	1.97 µM (inactive)	1.17 µM (inactive)	2.35 µM (inactive)	1.7 µM (inactive)	1.84 µM (inactive)	2.04 µM (inactive)	16.6 µM (inactive)
O=NN(CCCl)C(=O)NCCCl [CARMUSTINE]	120 µM (inactive)	52.2 µM (inactive)	79.3 µM (inactive)	88.1 µM (inactive)	38.6 µM (inactive)	52.1 µM (inactive)	64.6	93.1 µM (inactive)	33.5 µM (inactive)	76.2 µM (inactive)	52.2 µM (inactive)	38 µM (inactive)	44.5 µM (inactive)	65.2 µM (inactive)	42.9 µM (inactive)	44.8 µM (inactive)	73.6 µM (inactive)	81.5 µM (inactive)	75.9 µM (inactive)	97.3 µM (inactive)
CNc1nc(OC)c2c(n1)n(C)c[n+]2C [HETEROMINE B]	> 100 µM (inactive)	> 100 µM (inactive)	> 100 µM (inactive)	> 100 µM (inactive)	> 100 µM (inactive)	45.7 µM (inactive)	> 100	> 100 µM (inactive)	> 100 µM (inactive)	> 100 µM (inactive)	> 100 µM (inactive)	> 100 µM (inactive)	> 100 µM (inactive)	41.2 µM (inactive)	31.7 µM (inactive)	> 100 µM (inactive)	> 100 µM (inactive)	> 100 µM (inactive)	> 100 µM (inactive)	> 100 µM (inactive)

— ChEMBL document CHEMBL1201862, “PubChem BioAssay data set” (2004)
